Test results: patent US8802597B2, “Herbicidal pyrimidines” (E I du Pont de Nemours and Company, priority 2003, dated 2014)

How the values were obtained:
Test in all cases: Test G pre/postemergence
Type in all cases: in vivo
[1] = system: field bindweed (Convolvulus arvensis)
Summary of the method: (§1)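 Pre- and postemergence greenhouse test; compound in non-phytotoxic solvent/surfactant mix. Post timing: 2–18 cm plants, 1- to 4-leaf. Visual rating vs controls at 12–21 d, 0 (no effect) to 100 (complete control).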

[2] = system: annual bluegrass (Poa annua)
Summary of the method: as §1

[3] = system: common mallow (Malva sylvestris)
Summary of the method: as §1

[4] = system: southern sandbur (Cenchrus echinatus)
Summary of the method: as §1

[5] = system: goosegrass (Eleusine indica)
Summary of the method: as §1

[6] = system: pitted morningglory (Ipomoea lacunosa)
Summary of the method: as §1

[7] = system: quackgrass (Elytrigia repens)
Summary of the method: as §1

[8] = system: barnyardgrass (Echinochloa crus-galli)
Summary of the method: as §1

[9] = system: green foxtail (Setaria viridis)
Summary of the method: as §1

[10] = system: broadleaf signalgrass (Brachiaria platyphylla)
Summary of the method: as §1

[11] = system: black mustard (Brassica nigra)
Summary of the method: as §1

[12] = system: prickly sida (Sida spinosa)
Summary of the method: as §1

[13] = system: large crabgrass (Digitaria sanguinalis)
Summary of the method: as §1

[14] = system: common chickweed (Stellaria media)
Summary of the method: as §1

[15] = Postemergence, 250 g ai/ha, scale 0 to 100
[16] = Postemergence, 16 g ai/ha, scale 0 to 100
[17] = Postemergence, 31 g ai/ha, scale 0 to 100
[18] = Postemergence, 62 g ai/ha, scale 0 to 100
[19] = Postemergence, 125 g ai/ha, scale 0 to 100
[20] = Preemergence, 16 g ai/ha, scale 0-100
[21] = Preemergence, 31 g ai/ha, scale 0-100
[22] = Preemergence, 62 g ai/ha, scale 0-100
[23] = Preemergence, 125 g ai/ha, scale 0-100
[24] = Preemergence, 250 g ai/ha, scale 0-100

SMILES: Nc1nc(C2CC2)nc(C(=O)[O-])c1Cl.[Na+] [Compound 77, 6-amino-5-chloro-2-cyclopropyl-4-pyrimidinecarboxylic acid monosodium salt]
- Plant response rating, Bindweed, Field [1, 15]: 100
- Plant response rating, Bindweed, Field [1, 16]: 70
- Plant response rating, Bindweed, Field [1, 17]: 98
- Plant response rating, Bindweed, Field [1, 18]: 98
- Plant response rating, Bindweed, Field [1, 19]: 100
- Plant response rating, Bindweed, Field [1, 20]: 80
- Plant response rating, Bindweed, Field [1, 21]: 90
- Plant response rating, Bindweed, Field [1, 22]: 95
- Plant response rating, Bindweed, Field [1, 23]: 100
- Plant response rating, Bindweed, Field [1, 24]: 100
- Plant response rating, Bluegrass [2, 15]: 40
- Plant response rating, Bluegrass [2, 16]: 0
- Plant response rating, Bluegrass [2, 17]: 0
- Plant response rating, Bluegrass [2, 18]: 0
- Plant response rating, Bluegrass [2, 19]: 40
- Plant response rating, Bluegrass [2, 20]: 0
- Plant response rating, Bluegrass [2, 21]: 0
- Plant response rating, Bluegrass [2, 22]: 5
- Plant response rating, Bluegrass [2, 23]: 20
- Plant response rating, Bluegrass [2, 24]: 40
- Plant response rating, Mallow [3, 15]: 95
- Plant response rating, Mallow [3, 16]: 65
- Plant response rating, Mallow [3, 17]: 75
- Plant response rating, Mallow [3, 18]: 80
- Plant response rating, Mallow [3, 19]: 85
- Plant response rating, Mallow [3, 20]: 30
- Plant response rating, Mallow [3, 21]: 40
- Plant response rating, Mallow [3, 22]: 50
- Plant response rating, Mallow [3, 23]: 80
- Plant response rating, Mallow [3, 24]: 80
- Plant response rating, Sandbur [4, 15]: 40
- Plant response rating, Sandbur [4, 16]: 0
- Plant response rating, Sandbur [4, 17]: 0
- Plant response rating, Sandbur [4, 18]: 10
- Plant response rating, Sandbur [4, 19]: 35
- Plant response rating, Sandbur [4, 20]: 0
- Plant response rating, Sandbur [4, 21]: 20
- Plant response rating, Sandbur [4, 22]: 100
- Plant response rating, Sandbur [4, 23]: 100
- Plant response rating, Sandbur [4, 24]: 100
- Plant response rating, Goosegrass [5, 15]: 65
- Plant response rating, Goosegrass [5, 16]: 0
- Plant response rating, Goosegrass [5, 17]: 15
- Plant response rating, Goosegrass [5, 18]: 50
- Plant response rating, Goosegrass [5, 19]: 50
- Plant response rating, Goosegrass [5, 20]: 0
- Plant response rating, Goosegrass [5, 21]: 5
- Plant response rating, Goosegrass [5, 22]: 5
- Plant response rating, Goosegrass [5, 23]: 25
- Plant response rating, Goosegrass [5, 24]: 55
- Plant response rating, Morningglory [6, 15]: 100
- Plant response rating, Morningglory [6, 16]: 50
- Plant response rating, Morningglory [6, 17]: 60
- Plant response rating, Morningglory [6, 18]: 90
- Plant response rating, Morningglory [6, 19]: 100
- Plant response rating, Morningglory [6, 20]: 70
- Plant response rating, Morningglory [6, 21]: 90
- Plant response rating, Morningglory [6, 22]: 100
- Plant response rating, Morningglory [6, 23]: 100
- Plant response rating, Morningglory [6, 24]: 100
- Plant response rating, Quackgrass [7, 15]: 60
- Plant response rating, Quackgrass [7, 16]: 0
- Plant response rating, Quackgrass [7, 17]: 10
- Plant response rating, Quackgrass [7, 18]: 40
- Plant response rating, Quackgrass [7, 19]: 60
- Plant response rating, Quackgrass [7, 20]: 0
- Plant response rating, Quackgrass [7, 21]: 0
- Plant response rating, Quackgrass [7, 22]: 10
- Plant response rating, Quackgrass [7, 23]: 50
- Plant response rating, Quackgrass [7, 24]: 80
- Plant response rating, Barnyardgrass [8, 15]: 75
- Plant response rating, Barnyardgrass [8, 16]: 0
- Plant response rating, Barnyardgrass [8, 17]: 10
- Plant response rating, Barnyardgrass [8, 18]: 40
- Plant response rating, Barnyardgrass [8, 19]: 65
- Plant response rating, Barnyardgrass [8, 20]: 50
- Plant response rating, Barnyardgrass [8, 21]: 55
- Plant response rating, Barnyardgrass [8, 22]: 75
- Plant response rating, Barnyardgrass [8, 23]: 85
- Plant response rating, Barnyardgrass [8, 24]: 90
- Plant response rating, Foxtail, Green [9, 15]: 40
- Plant response rating, Foxtail, Green [9, 16]: 0
- Plant response rating, Foxtail, Green [9, 17]: 0
- Plant response rating, Foxtail, Green [9, 18]: 35
- Plant response rating, Foxtail, Green [9, 19]: 40
- Plant response rating, Foxtail, Green [9, 20]: 0
- Plant response rating, Foxtail, Green [9, 21]: 5
- Plant response rating, Foxtail, Green [9, 22]: 65
- Plant response rating, Foxtail, Green [9, 23]: 85
- Plant response rating, Foxtail, Green [9, 24]: 90
- Plant response rating, Signalgrass [10, 15]: 70
- Plant response rating, Signalgrass [10, 16]: 0
- Plant response rating, Signalgrass [10, 17]: 30
- Plant response rating, Signalgrass [10, 18]: 50
- Plant response rating, Signalgrass [10, 19]: 60
- Plant response rating, Signalgrass [10, 20]: 5
- Plant response rating, Signalgrass [10, 21]: 10
- Plant response rating, Signalgrass [10, 22]: 75
- Plant response rating, Signalgrass [10, 23]: 90
- Plant response rating, Signalgrass [10, 24]: 95
- Plant response rating, Black Mustard [11, 15]: 60
- Plant response rating, Black Mustard [11, 16]: 25
- Plant response rating, Black Mustard [11, 17]: 40
- Plant response rating, Black Mustard [11, 18]: 50
- Plant response rating, Black Mustard [11, 19]: 60
- Plant response rating, Black Mustard [11, 20]: 60
- Plant response rating, Black Mustard [11, 21]: 60
- Plant response rating, Black Mustard [11, 22]: 85
- Plant response rating, Black Mustard [11, 23]: 90
- Plant response rating, Black Mustard [11, 24]: 95
- Plant response rating, Prickly Sida [12, 15]: 80
- Plant response rating, Prickly Sida [12, 16]: 70
- Plant response rating, Prickly Sida [12, 17]: 75
- Plant response rating, Prickly Sida [12, 18]: 80
- Plant response rating, Prickly Sida [12, 19]: 80
- Plant response rating, Prickly Sida [12, 20]: 70
- Plant response rating, Prickly Sida [12, 21]: 75
- Plant response rating, Prickly Sida [12, 22]: 85
- Plant response rating, Prickly Sida [12, 23]: 90
- Plant response rating, Prickly Sida [12, 24]: 95
- Plant response rating, Crabgrass, Large [13, 15]: 75
- Plant response rating, Crabgrass, Large [13, 16]: 60
- Plant response rating, Crabgrass, Large [13, 17]: 70
- Plant response rating, Crabgrass, Large [13, 18]: 75
- Plant response rating, Crabgrass, Large [13, 19]: 75
- Plant response rating, Crabgrass, Large [13, 20]: 45
- Plant response rating, Crabgrass, Large [13, 21]: 45
- Plant response rating, Crabgrass, Large [13, 22]: 80
- Plant response rating, Crabgrass, Large [13, 23]: 85
- Plant response rating, Crabgrass, Large [13, 24]: 90
- Plant response rating, Chickweed [14, 15]: 100
- Plant response rating, Chickweed [14, 16]: 10
- Plant response rating, Chickweed [14, 17]: 80
- Plant response rating, Chickweed [14, 18]: 90
- Plant response rating, Chickweed [14, 19]: 90
- Plant response rating, Chickweed [14, 21]: 70
- Plant response rating, Chickweed [14, 22]: 90
- Plant response rating, Chickweed [14, 23]: 100
- Plant response rating, Chickweed [14, 24]: 100
